The target of test [1] is T1, Microsomal triglyceride transfer protein (MTP) from bovine liver (Bos taurus, UniProt P55156).
T1 construct: from tissue; host or cells: bovine liver
T1 sequence (P55156 12-887): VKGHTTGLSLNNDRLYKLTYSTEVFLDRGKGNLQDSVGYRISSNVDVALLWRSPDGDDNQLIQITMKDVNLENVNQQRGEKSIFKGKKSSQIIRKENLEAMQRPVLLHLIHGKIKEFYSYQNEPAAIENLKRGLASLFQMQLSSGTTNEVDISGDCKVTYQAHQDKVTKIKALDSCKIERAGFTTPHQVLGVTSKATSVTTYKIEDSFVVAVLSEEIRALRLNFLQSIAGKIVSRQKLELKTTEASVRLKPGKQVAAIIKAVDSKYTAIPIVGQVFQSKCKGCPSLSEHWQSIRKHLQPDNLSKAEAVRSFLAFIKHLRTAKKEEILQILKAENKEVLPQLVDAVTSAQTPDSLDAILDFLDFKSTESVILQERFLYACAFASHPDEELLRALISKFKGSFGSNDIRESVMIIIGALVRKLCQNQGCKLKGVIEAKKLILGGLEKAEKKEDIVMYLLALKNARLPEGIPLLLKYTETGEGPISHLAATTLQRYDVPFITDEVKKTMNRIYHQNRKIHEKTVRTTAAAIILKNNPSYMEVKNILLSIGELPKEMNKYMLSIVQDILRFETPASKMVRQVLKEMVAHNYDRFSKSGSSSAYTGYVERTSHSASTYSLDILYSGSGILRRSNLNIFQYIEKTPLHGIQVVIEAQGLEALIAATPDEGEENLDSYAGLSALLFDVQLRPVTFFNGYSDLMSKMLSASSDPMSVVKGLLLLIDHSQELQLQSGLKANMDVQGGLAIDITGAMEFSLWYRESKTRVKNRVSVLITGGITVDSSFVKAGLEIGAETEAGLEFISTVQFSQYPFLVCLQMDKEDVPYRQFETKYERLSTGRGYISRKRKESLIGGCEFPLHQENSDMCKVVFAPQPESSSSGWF
T1 sequence (P05307 21-510 partner): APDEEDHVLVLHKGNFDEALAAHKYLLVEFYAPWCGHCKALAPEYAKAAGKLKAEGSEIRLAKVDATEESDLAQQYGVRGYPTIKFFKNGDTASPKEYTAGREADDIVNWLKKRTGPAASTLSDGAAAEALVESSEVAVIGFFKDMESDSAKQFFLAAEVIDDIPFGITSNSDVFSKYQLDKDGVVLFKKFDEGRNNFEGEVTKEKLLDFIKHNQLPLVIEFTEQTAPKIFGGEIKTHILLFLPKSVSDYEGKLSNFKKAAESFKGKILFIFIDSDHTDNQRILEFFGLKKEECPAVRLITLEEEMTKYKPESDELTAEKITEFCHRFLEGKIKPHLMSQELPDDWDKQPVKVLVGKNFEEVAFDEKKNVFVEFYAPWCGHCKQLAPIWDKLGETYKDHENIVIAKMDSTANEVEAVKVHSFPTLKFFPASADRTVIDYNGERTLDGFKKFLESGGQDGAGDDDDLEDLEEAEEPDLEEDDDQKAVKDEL
Nature of the test: Test Example 1: inhibition of interliposomal triglyceride (TG) transfer activity by MTP (also used for metabolites in Test Example 8). It is filed as biochemical. The settings on record: MTP-mediated 14C-triolein transfer between liposomes, 37° C., one hour; read-out: Test Example 1 MTP inhibition IC50. As to the method: Inhibition of Interliposomal Triglyceride (TG) Transfer Activity by MTP
Microsomal triglyceride transfer protein (MTP) from bovine liver was partially purified in such a way described below. A buffer (50 mM Tris, 250 mM sucrose, 1 mM EDTA, 0.02% NaN3 (pH 7.4)) for making a homogenate preparation was added to bovine liver, and the mixture was homogenated under ice-cooling, then centrifuged at 10,000×g (4° C., 30 minutes). The supernatant was adjusted to pH 5.1 with hydrochloric acid, and stirred for 30 minutes. The solution was further centrifuged at 10,000×g (4° C., 30 minutes), and 1 mM Tris buffer was added to the precipitated residue, and the mixture was adjusted to pH 8.6 with sodium hydroxide. After addition of 2.7M ammonium sulfate solution, the mixture was stirred for 30 minutes, then centrifuged at 10,000×g (4° C., 40 minutes). The resulting supernatant was served as a crude extraction fraction of MTP and stored at −80° C. under freezing. In its practical use, the crude extraction fraction of MTP was purified by column chromatography on diethylaminoethyl (DEAE) Sepharose using FPLC (Fast Performance Liquid Chromatography) system, and the purified MTP was used for the test.
Small unilamellar-vesicle (SUV) liposome (donor, 0.25 mol % triolein, 5 mol % cardiolipin) labeled with ^14C-triolein and non-labeled SUV liposome (acceptor, 0.25 mol % triolein) were prepared. A fixed amount of donor and acceptor, and MTP were mixed with a sample dissolved in DMSO or with DMSO. The mixture was incubated in a 15 mM Tris hydrochloride buffer (pH 7.4) containing 40 mM sodium chloride, 1 mM EDTA (ethylenediaminetetraacetic acid), 0.02% NaN3 and 0.5% bovine serum albumin at 37° C. for one hour. After completion of the incubation, a suspension of DEAE cellulose (50% v/v) in 15 mM Tris hydrochloride buffer (pH 7.4) was added to the above solution, and the mixture was centrifuged to separate the donor and the acceptor. The radioactivity in the acceptor was measured by liquid scintillation counter. The value obtained by subtracting the radioactivity in the blank from the amount of radioactivity in the acceptor of a DMSO group was determined as MTP-mediated TG transfer activity, and it was compared with the value obtained by subtracting the radioactivity in the blank from the radioactivity in a sample group. The blank was prepared by adding 15 mM Tris-HCl buffer (pH 7.4) in place of MTP. Inhibition rate (%) was calculated from the values obtained according to the following equation.
Inhibition rate (%)=100×(1 minus ((radioactivity of sample group minus radioactivity of blank group)/(radioactivity of DMSO group minus radioactivity of blank group))).
50% Inhibition rate (IC50) was determined on the basis of the above equation.
Inhibitory Activity on MTP and apo B Secretion Inhibition by Metabolites
In a similar manner to Test Examples 1 and 2, the activity of metabolites was assayed.

Test [2] concerns HepG2 cells. Nature of the test: Test Example 2: inhibition of apolipoprotein B secretion from HepG2 cells, ELISA (also used for metabolites in Test Example 8). The note with it: Homo sapiens, 24 hours, apo B in supernatant by ELISA, read-out: Test Example 2 Inhibition of apo B secretion IC50. In kind it is cell-based. The method, boiled down:
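HepG2 cells cultured 24 h, then exposed 24 h to compounds or metabolites in medium with 0.5% DMSO. Secreted apo B in supernatant quantified by sandwich ELISA (HRP, ABTS, 405 nm) against purified human apo B standard; % inhibition vs DMSO group, IC50 derived.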

For the compound `CCOC(=O)C(COC(=O)Cc1ccc(NC(=O)c2ccccc2-c2ccc(C(F)(F)F)cc2)cc1)(C(=O)OCC)c1cccnc1` [Example 1-38], the IC50 (as a rule, the concentration that gives 50% inhibition) in test [1] worked out at 6 nM; in test [2], 320 nM.

For the compound `CCNC(=O)C(COC(=O)Cc1ccc(OC(=O)c2ccccc2-c2ccc(C(F)(F)F)cc2)cc1)(C(=O)NCC)c1ccccc1` [Example 1-39], the IC50 in test [1] came to 0.66 nM; in test [2], 160 nM.

Regarding `CCOC(=O)C(COC(=O)Cc1ccc(NC(=O)c2ccccc2-c2ccc(C(F)(F)F)cc2)c(C(F)(F)F)c1)(C(=O)OCC)c1ccccc1` [Example 1-40], the IC50 in test [1] is 6.9 nM; in test [2], 2.1 nM.

Consider `CCCCNC(=O)C(COC(=O)Cc1ccc(NC(=O)c2ccccc2-c2ccc(C(F)(F)F)cc2)cc1)(C(=O)NCCCC)c1ccccc1` [Example 1-42], for which the IC50 in test [1] was found to be 4.4 nM; in test [2] it was 35 nM.

With `CCOC(=O)C(COC(=O)Cc1ccc(NC(=O)c2ccccc2-c2ccc(OC)cc2)cc1)(C(=O)OCC)c1ccccc1` [Example 1-47], the figures for the IC50 in test [1] and in test [2] were 4.5 nM and 750 nM, respectively.

Turning to `CCNC(=O)C(CCOC(=O)Cc1ccc(NC(=O)c2ccccc2-c2ccc(C(F)(F)F)cc2)cc1)(C(=O)NCC)c1ccccc1` [Example 1-48], the IC50 in test [1] worked out at 3.2 nM; in test [2] it was 9.7 nM.

`CCCNC(=O)C(CCOC(=O)Cc1ccc(NC(=O)c2ccccc2-c2ccc(C(F)(F)F)cc2)cc1)(C(=O)NCCC)c1ccccc1` [Example 1-49]: the values for the IC50 in test [1] and in test [2] were 20 nM and 5.3 nM, respectively.

Turning to `CCNC(=O)C(COC(=O)Cc1ccc(NC(=O)c2ccccc2Oc2ccccc2)cc1)(C(=O)NCC)c1ccccc1` [Example 1-51], the IC50 in test [1] came out at 0.96 nM; in test [2], 530 nM.

As for `CCCCOc1ccccc1C(=O)Nc1ccc(CC(=O)OCC(C(=O)NCC)(C(=O)NCC)c2ccccc2)cc1` [Example 1-52], the IC50 was found to be 10 nM in test [1] and 690 nM in test [2].

For the compound `CCOC(=O)C(COC(=O)Cc1ccc(NC(=O)c2ccccc2-c2cccc(C(F)(F)F)c2)cc1)(C(=O)OCC)c1ccccc1` [Example 1-53], the IC50 in test [1] was 0.43 nM; in test [2], 860 nM.

On to `CCCOC(=O)C(COC(=O)Cc1ccc(NC(=O)c2ccccc2-c2ccc(C(F)(F)F)cc2)cc1)(C(=O)OCCC)c1ccccc1` [Example 1-62], for which the IC50 in test [1] is 5 nM; in test [2], 46 nM.

For the compound `CC(C)COC(=O)C(COC(=O)Cc1ccc(NC(=O)c2ccccc2-c2ccc(C(F)(F)F)cc2)cc1)(C(=O)OCC(C)C)c1ccccc1` [Example 1-63], the IC50 in test [1] is 16 nM; in test [2], 90 nM.

For `CC(C)CCNC(=O)C(COC(=O)Cc1ccc(NC(=O)c2ccccc2-c2ccc(C(F)(F)F)cc2)cc1)(C(=O)NCCC(C)C)c1ccccc1` [Example 1-67], the figures for the IC50 in test [1] and in test [2] were 27 nM and 28 nM, respectively.

Turning to `CCNC(=O)C(COC(=O)Cc1ccc(NC(=O)c2ccccc2C2CCCCC2)cc1)(C(=O)NCC)c1ccccc1` [Example 1-69], the results for the IC50 in test [1] and in test [2] were 9.1 nM and 90 nM, respectively.

With `CCNC(=O)C(COC(=O)Cc1ccc(NC(=O)c2ccccc2-c2ccc(Cl)cc2)cc1)(C(=O)NCC)c1ccccc1` [Example 1-70], the IC50 in test [1] was 1.6 nM; in test [2] it was 270 nM.

On to `CCNC(=O)C(COC(=O)Cc1ccc(NC(=O)c2ccccc2-c2ccc(Cl)c(Cl)c2)cc1)(C(=O)NCC)c1ccccc1` [Example 1-71], for which the IC50 in test [1] came out at 1.8 nM; in test [2], 120 nM.

In the case of `CCNC(=O)C(COC(=O)Cc1ccc(NC(=O)c2ccccc2-c2ccc(C(F)(F)F)cc2)c(C(=O)N(C)C)c1)c1ccccc1` (stereo not drawn) [Example 2-21], the IC50 in test [1] is 1.8 nM; in test [2], 8.9 nM.

For the compound `CCOC(=O)C(COC(=O)Cc1ccc(NC(=O)c2ccccc2-c2ccc(C(F)(F)F)cc2)c(C(=O)N2CCCCC2)c1)(C(=O)OCC)c1ccccc1` [Example 2-23], the IC50 turned out to be 2.7 nM in test [1] and 0.61 nM in test [2].
